Data from patent US20020103111A1, “Inhibitors of MAdCAM-1-mediated interactions and methods of use therefor” (Millennium Pharmaceuticals, Inc., priority 1996, published 2002).
Read-outs that look alike come from different tables or passages of the source. Square brackets hold non-standard residues; d marks the D form. Ends that are not written are not given here. Peptide text beside a SMILES is read from it. * marks the point of attachment. Butanoyl(4-pyren-1-yl) = O=C(CCCc1ccc2ccc3cccc4ccc1c2c34)*; Cyclopentanecarbonyl = O=C(C1CCCC1)*; NMeL = CN[C@@H](CC(C)C)C(=O)O

How the values were obtained:
[1] = molecular target: T1, murine MAdCAM-1 (MAdCAM-1/mCk fusion protein); α4β7-bearing HUT 78 cells (Homo sapiens, UniProt P13612+P26010); assay: Adhesion of HUT 78 cells to MAdCAM-1/mCk fusion protein bound via capture antibody; assay type: cell-based; settings: for IC50: HUT 78 cell adhesion to MAdCAM-1/mCk, average of two determinations; for inhibition at 100 µM: HuT78, read-out: % Adhesion Inhibition; for % Adhesion Inhibition 500 μM: 500 μM compound, HUT 78 cells, Mn2+ activated
T1 construct: host or cells: HUT 78 cells (endogenous α4β7); The MAdCAM-1/mCk partner was made in house in baculovirus-infected Sf9 insect cells, used as neat supernatant and captured by rat anti-mCk antibody
Experimental: The compounds of the present invention were evaluated for their biological properties.
A soluble fusion protein comprising murine MAdCAM-1 was produced in a baculovirus expression system and used in the adhesion assay. A fusion gene in which sequences encoding the signal peptide and extracellular domain of murine MAdCAM-1 were fused to sequences encoding a constant region of the murine kappa light chain (mCk) was constructed, and cloned into a baculovirus shuttle vector. Fusion protein produced from the resulting construct contained the integrin binding sequences of murine MAdCAM-1 at the amino-terminus, and the mCk sequence at the carboxy-terminus. Recombinant baculovirus encoding the fusion protein was harvested from infected Sf9 insect cells.
Human T-cell lymphoma cells (HUT 78 cells) activated with Mn^+2 were used for the adhesion assay in a 96-well format. HUT 78 cells were labelled by preincubation with ECECF-AM stain (Molecular Probes). Assays were conducted in a final volume of 200 μl. The adhesion of HUT 78 cells to MAdCAM-1/mCk fusion protein bound to wells via rat anti-mCk capture antibody was assessed in the presence or absence of each compound. […] Percent inhibition and IC50 values were determined.
HUT 78 cells (a human T cell lymphoma line; American Type Culture Collection, Accession No. ATCC TIB 161) were maintained in culture for up to one month in RPMI 1640 supplemented with 10% FCS, 20 mM HEPES, and Pen-Strep (1:100). Just prior to use in adhesion assays, cells were labeled with BCECF-AM as follows: 1×10^7 cells were pelleted at 1000 rpm for 10 minutes and resuspended in 25 mL cold PBS (Phosphate Buffered Saline). The cells were pelleted again, resuspended in cold PBS, and pelleted again. The cell pellet was resuspended in 25 ml PBS and labeled with 50 μl BCECF-AM (1 μg/μL in DMSO) for 30 minutes at 37° C. (BCECF-AM; 2′,7′-bis-(2-carboxyethyl)-5-(and-6)-carboxyflourescein, acetoxymethyl ester). The labeled cells were pelleted at 700 rpm for 10 minutes, resuspended in 25 ml cold Assay Buffer and pelleted.
The assay was performed in a 96-well format. Plates were coated overnight at 4° C. with 53 μl/well of a 5 μg/mL solution of rat anti-mCk in carbonate buffer. The plates were blocked for 1 hour at 37° C. with 100 μL/well of 1% BSA in PBS. The BSA/PBS solution was removed, and 50 μL of MAdCAM-mCk supernatant was added neat to each well. The assay was conducted under conditions in which capture antibody was the limiting reagent.
Cell adhesion was measured in the presence or absence of compounds. The compounds were resuspended in 100% DMSO, subsequently diluted 1:10 in water, and finally diluted again 1:10 in the assay: 50 μL of 2X Assay Bufler, 30 μL water, 20 μL of compound were added to each well. […] Cell adhesion occurred in 30 minutes at ambient temperature, after which plates were washed with 50 mM Tris/2 mM MnCl2, pH 7.2 using an EL 404 Microplate Autowasher (BIO-TEK Instruments) using the following wash parameters: wash volume=500 μL; two wash cycles; wash depth=80; aspirating after each wash.
Additional determinations were conducted as needed, so that each IC50 was determined over a range which encompassed the IC50. Over this range, Four different concentrations were tested in duplicate.
For each compound, a ratio was determined as follows: An average of the readings from duplicate wells was divided by an average of eight control wells (adhesion in the absence of any compound). […] In addition, the concentration (μM) of compound used was plotted against the resulting ratios.
The IC50 was then determined using Kaleidograph software (Abelbeck Software). The complete procedure was repeated again using duplicate wells for each point.

[2] = molecular target: T2, human MAdCAM-1 (huMAdCAM-1-Ig chimera); RPMI 8866 cells expressing α4β7 (Homo sapiens, UniProt P13612+P26010); assay: huMAdCAM-1-Ig/RPMI 8866 Adhesion Assay; assay type: cell-based; settings: Table 6, R1-Leu-Asp-Thr, read-out: hMAdCAM IC50
T2 construct: RPMI 8866 cells, a B cell lymphoma expressing α4β7; endogenous in cells; host or cells: RPMI 8866 cells (endogenous α4β7)
Experimental: RPMI 8866 cells, a B cell lymphoma expressing α4β7 (a gift from D. Erle; Erle, D. J. et al., J. Immunol., 153:517-528 (1994); Shyjan et al., Journal of Immunology, 1996:2851 (1996) were fluorescently labeled (labeling protocol provided below) using BCECF (Molecular probes #B-1170). Cells were resuspended in an assay buffer consisting of Hanks Balanced Salt Solution (HBSS) supplemented with fetal calf serum (FCS) at a final concentration of 2%, HEPES, pH 7.3 at 25 mM. All reagents in this buffer were supplied from Gibco/BRL.
All assays were performed in 96 well strip well plates from Costar (E.I.A./R.I.A. Strip plate-8 Cat. #2581). […] The plates were incubated at 37° C. for one hour (or at 4° C. overnight) and washed once in the automatic plate washer (50 mM Tris HCl, 0.14 M NaCl and 2.0 mM MnCl2 at pH 7.2) (Bio-Tek EL 404 microplate autowasher). Wells were then blocked with PBS (phosphate buffered saline) and 10% FCS (100 μl/well) for one hour at 37° C. followed by the same wash step as described.
Cells were labeled with BCECF-AM (Molecular Probes, Cat. No. B-1170) at a concentration of 2 μl/ml to a cell suspension of 4×10^6 cells/ml in PBS. The cells were incubated in a 37° C. water bath for 30 minutes. Labeled cells were centrifuged at 700 RPM for 10 minutes, resuspended in assay buffer and the centrifugation step was repeated. The cells were resuspended at a final concentration of 2.5×10^6 cells/ml.
For assays, compounds were diluted as follows in a 96 well polypropylene plate. First, a stock solution of each compound was prepared by dissolving compound in 100% DMSO at 100X final concentration to be tested. 10 μl of the stock was added to 90 μl water for the first test dilution. 50 μl of the first test dilution was added to 50 μl of 10% DMSO in water for the second test dilution. 50 μl of the second test dilution was added to 50 μl of 10% DMSO in water for the third test dilution. 50 μof the third test dilution was added to 50 μl of 10% DMSO in water for the fourth test dilution, and so on, until six test dilutions were prepared.
A stock solution of SmM positive control peptide (L783-1A) was made in 100% DMSO, and subsequently diluted in water 1:10 (10 μl of 5 mM stock plus 90 μl of water) to yield a concentration of 0.5mM. This dilution was then further diluted 1:2 with 10% DMSO (50 μl of the compound and 50 μl of 10% DMSO) for a concentration of 250 μM. These 1:2 dilutions were continued serially until six dilutions were achieved. These dilutions represent 10X stocks as shown in the assay set up below:
The assay was set up by adding materials to huMAdCAM-1-Ig-coated plates as follows:
1) 130 μl/well of assay buffer
2) 20 μl/well of diluted compounds or 10% DMSO (control) or diluted positive control peptide.
3) 50 μl of ECECF-AM-labeled RPMI 8866 cells
The plates were wrapped in foil and incubated for 30 minutes at room temperature on a rotary shaker at 45 RPM.
Plates were washed twice (50 mM Tris HCl, […] and 2.0 mM MnCl2 at pH 7.2) on the microplate autowasher plate washer set as follows:
Plates were read in an IDEX fluoresecent plate reader set to excite at 485 nm and read at 535 nm.
Data was collected in microsoft excel in a format for automatic IC 50 determinations.

Row | Molecule | % Adhesion Inhibition 500 μM [1] | other results
1 | CC(C)C[C@H](NC(=O)[C@H](CO)NC(=O)[C@@H](NC(=O)[C@H](Cc1ccc(O)cc1)NC(=O)[C@H](CC(C)C)NC(=O)CCCc1ccc2ccc3cccc4ccc1c2c34)[C@@H](C)O)C(N)=O [Example 42, Pba-Leu-Tyr-Thr-Ser-Leu] ({Butanoyl(4-pyren-1-yl)}-LYTSL-NH2) | – | inhibition at 500 µM ([1]; HuT78, read-out: % Adhesion Inhibition 500 μM): 100%; IC50 ([1]; IC50 (μM)): 30 µM
2 | CC(=O)N(C)[C@@H](CC(C)C)C(=O)N[C@@H](CC(=O)O)C(=O)N[C@H](C(=O)N[C@@H](CO)C(=O)N[C@@H](CC(C)C)C(N)=O)[C@@H](C)O [Example 49, Ac-MeLeu-Asp-Thr-Ser-Leu] | – | IC50 ([1]; read-out: IC50): 150 µM
3 | CC(C)C[C@H](NC(=O)[C@H](CO)NC(=O)[C@@H](NC(=O)[C@H](CC(=O)O)NC(=O)C1CCCC1)[C@@H](C)O)C(N)=O [Example 50, Cpc-Asp-Thr-Ser-Leu] (Cyclopentanecarbonyl-DTSL-NH2) | – | IC50 ([1]; read-out: IC50): 8.9 µM
4 | CC(C)C[C@H](NC(=O)[C@H](CO)NC(=O)[C@@H](NC(=O)[C@H](CC(=O)O)NC(=O)CCCc1ccc2ccc3cccc4ccc1c2c34)[C@@H](C)O)C(N)=O [Example 51, Pba-Asp-Thr-Ser-Leu] ({Butanoyl(4-pyren-1-yl)}-DTSL-NH2) | – | inhibition at 100 µM [1]: 100%; IC50 ([1]; IC50 (μM)): 13.3 µM
5 | C[C@@H](O)[C@H](NC(=O)[C@H](CC(=O)O)NC(=O)c1ccc2ccc3cccc4ccc1c2c34)C(N)=O [Example 52, Pca-Asp-Thr] | – | IC50 ([1]; read-out: IC50): 11 µM
6 | C[C@@H](O)[C@H](NC(=O)[C@H](CC(=O)O)NC(=O)CCCc1ccc2ccc3cccc4ccc1c2c34)C(N)=O [Example 53, Pba-Asp-Thr] | – | inhibition at 100 µM [1]: 100%; IC50 ([1]; IC50 (μM)): 13.5 µM
7 | CCCCCCOc1ccc(C(=O)N[C@@H](CC(C)C)C(=O)N[C@@H](CC(=O)O)C(=O)N[C@H](C(N)=O)[C@@H](C)O)cc1 [Table 6 example 1] | – | IC50 [2]: 0.58 µM
8 | Ac-Arg-Gly-Leu-Asp-Thr-Ser-Leu-Gly (Ac-RGLDTSLG; not fully specified (C-terminus); printed as Ac-Arg-Gly-Leu-Asp-Thr-Ser-Leu-Gly) [Example 59] | 75% | –
9 | Ac-Arg-Val-His-Trp-Arg-Gly-Leu-Asp-Thr-Ser-Leu-Gly-Ser-Val-Gln (Ac-RVHWRGLDTSLGSVQ; not fully specified (C-terminus); printed as Ac-Arg-Val-His-Trp-Arg-Gly-Leu-Asp-Thr-Ser-Leu-Gly-Ser-Val-Gln) [Example 62] | 88% | –
10 | Ac-His-Trp-Arg-Gly-Leu-Asp-Thr-Ser-Leu-Gly-Ser-Val (Ac-HWRGLDTSLGSV; not fully specified (C-terminus); printed as Ac-His-Trp-Arg-Gly-Leu-Asp-Thr-Ser-Leu-Gly-Ser-Val) [Example 61] | 71% | –
11 | Ac-Leu-Asp-Thr-Ser-Leu (Ac-LDTSL; not fully specified (C-terminus); printed as Ac-Leu-Asp-Thr-Ser-Leu) [Example 58] | 71% | –
12 | Ac-Lle-Asp-Thr-Ser-Leu [Example 46] | 17% | –
13 | Ac-Trp-Arg-Gly-Leu-Asp-Thr-Ser-Leu-Gly-Ser (Ac-WRGLDTSLGS; not fully specified (C-terminus); printed as Ac-Trp-Arg-Gly-Leu-Asp-Thr-Ser-Leu-Gly-Ser) [Example 60] | 71% | –
14 | MeLeu-Leu-Asp-Thr-Ser-Leu ([NMeL]LDTSL) [Example 27] | 54% | IC50 ([1]; read-out: IC50): 256 µM
15 | NH2-Arg-Val-His-Trp-Arg-Gly-Leu-Asp-Thr-Ser-Leu-Gly-Ser-Val-Gln (H-RVHWRGLDTSLGSVQ; not fully specified (C-terminus); printed as NH2-Arg-Val-His-Trp-Arg-Gly-Leu-Asp-Thr-Ser-Leu-Gly-Ser-Val-Gln) [Example 57] | 90% | –
16 | NH2-His-Trp-Arg-Gly-Leu-Asp-Thr-Ser-Leu-Gly-Ser-Val (H-HWRGLDTSLGSV; not fully specified (C-terminus); printed as NH2-His-Trp-Arg-Gly-Leu-Asp-Thr-Ser-Leu-Gly-Ser-Val) [Example 56] | 80% | –
17 | NH2-Leu-Asp-Thr-Ser-Leu (H-LDTSL; not fully specified (C-terminus); printed as NH2-Leu-Asp-Thr-Ser-Leu) [Example 54] | 22% | –
18 | NH2-Trp-Arg-Gly-Leu-Asp-Thr-Ser-Leu-Gly-Ser (H-WRGLDTSLGS; not fully specified (C-terminus); printed as NH2-Trp-Arg-Gly-Leu-Asp-Thr-Ser-Leu-Gly-Ser) [Example 55] | 76% | –
